Source: patent US20020006447A1, “Anti-chlamydia agent” (Mitsui Norin Co., Ltd., priority 1998, published 2002)

System: C. trachomatis
Assay: C. trachomatis inclusion body formation in HeLa 229 cells after pre-incubation with single catechins (Example 2)
Type: cell-based, Chlamydia trachomatis
Conditions: incubated for 90 minutes at 37° C.
Description: As test Chlamydia was used C. trachomatis strain. Chlamydia capable of forming 10^4 inclusion bodies was incubated at 37° C. for 90 minutes in a SPG solution containing (−)-epicatechin gallate or (−)-epigallocatechin gallate in various concentratIons. After completion of the incubation, each solution was inoculated onto Hela 229 cell cultivated by monolayer culture and adsorbed by centrifugation at 1,500 rpm for 60 minutes. Thereafter, the inoculum was removed and culture medium for Chlamydia (Eagle Minimum Essential Culture Medium containing 1 μg/ml cycloheximide) was added and cultivation was performed at 37° C. for 72 hours. After completion of cultivation, the culture medium was removed and the cells were fixed with methanol and then stained with FITC-labeled anti-C. trachomatis monoclonal antibody, followed by counting the number of inclusion bodies of C. trachomatis.

Compound	concentration that completely inhibited the growth of C. trachomatis
O=C(O[C@@H]1Cc2c(O)cc(O)cc2O[C@@H]1c1ccc(O)c(O)c1)c1cc(O)c(O)c(O)c1 [(−)-epicatechin gallate]	0.8 mg/mL
(−)-epigallocatechin gallate	1.6 mg/mL
